Assay results: ChEMBL document CHEMBL4665787, “Bifunctional and Unusual Amino Acid β- or γ-Ester Prodrugs of Nucleoside Analogues for Improved Affinity to ATB and Enhanced Metabolic Stability: An Application to Floxuridine” (J Med Chem, 2020)
Activity calls are given as the source filed them. The calls are words filed in the database; no cut-off is given here.

Experiments:
[1] = Drug uptake in MDCK cells incubated for 10 mins by HPLC analysis; assay type: ADME, cell-based, Canis lupus familiaris; settings: dog, 500 µM, dose 0.5 mM
[2] = Half life of compound in human MIA PaCa-2 cell homogenate; assay type: ADME, tissue-based
[3] = Cmax in NOD SCID nude mouse plasma xenografted with ZR-75-1 cells assessed as fluorouracil at 90 mg/kg, iv measured up to 24 hrs by HPLC-MS/MS analysis; assay type: ADME, organism-based; set-up: route intravenous, dose 90 mg/kg, time <=24; settings: in vivo
[4] = Half life of compound in human ZR-75-1 cell homogenate; assay type: ADME, tissue-based
[5] = Selectivity ratio of substrate activity at SLC6A14 (unknown origin) expressed in Xenopus laevis oocytes assessed as ABT0+ mediated drug uptake to drug uptake in Xenopus laevis oocytes; set-up: species or system Oocyte
[6] = Selectivity ratio of substrate activity at PEPT1 (unknown origin) expressed in MDCK cells assessed as PEPT1 mediated drug uptake to drug uptake in MDCK cells
MIA PaCa-2 [7] = test: Antitumour activity against human MIA-PaCa-2 cells xenografted in NOD SCID nude mouse assessed as tumour inhibition at 90 mg/kg, iv administered for 20 days measured every 2 day by caliper method relative to control; assay type: functional; settings: MIA PaCa-2, iv, 480 h, time 20 day
[8] = Toxicity in NOD SCID nude mouse xenografted with human MIA PaCa-2 cells assessed as body weight at 90 mg/kg, iv for 20 days (reference value: 28.4 +/- 2.1g); assay type: organism-based; settings: in vivo, 480 h, time 20 day
[9] = molecular target: T1, Sodium- and chloride-dependent neutral and basic amino acid transporter B(0+) (Homo sapiens, UniProt Q9UN76); test: Substrate activity at SLC6A14 (unknown origin) expressed in Xenopus laevis oocytes assessed as ABT0+ mediated drug uptake at 0.5 mM incubated for 10 mins by HPLC analysis; assay type: ADME, cell-based; settings: oocyte, 500 µM
T1 sequence (Q9UN76 whole entry): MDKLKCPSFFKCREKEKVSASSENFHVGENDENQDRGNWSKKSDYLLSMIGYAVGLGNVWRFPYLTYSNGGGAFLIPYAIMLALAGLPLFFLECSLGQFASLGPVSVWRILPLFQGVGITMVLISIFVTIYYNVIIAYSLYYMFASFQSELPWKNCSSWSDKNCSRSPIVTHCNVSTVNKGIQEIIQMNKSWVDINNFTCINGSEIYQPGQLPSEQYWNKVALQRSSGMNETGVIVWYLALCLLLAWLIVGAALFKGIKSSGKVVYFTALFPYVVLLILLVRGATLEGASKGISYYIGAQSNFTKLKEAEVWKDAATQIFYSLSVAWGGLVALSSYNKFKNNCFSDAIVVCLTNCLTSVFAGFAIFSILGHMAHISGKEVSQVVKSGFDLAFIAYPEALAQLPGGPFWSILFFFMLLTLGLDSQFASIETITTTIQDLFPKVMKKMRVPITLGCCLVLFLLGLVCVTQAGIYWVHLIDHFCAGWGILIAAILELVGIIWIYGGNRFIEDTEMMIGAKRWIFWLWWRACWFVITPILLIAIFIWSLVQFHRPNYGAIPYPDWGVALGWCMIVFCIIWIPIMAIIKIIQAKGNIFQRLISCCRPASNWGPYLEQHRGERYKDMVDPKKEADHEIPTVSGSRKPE

MDA-MB-231 [10] = test: Antitumour activity against human MDA-MB-231 cells xenografted in NOD SCID nude mouse assessed as tumour inhibition at 90 mg/kg, iv administered for 20 days measured every 2 day by caliper method relative to control; assay type: functional; settings: MDA-MB-231, iv, 480 h, time 20 day
[11] = molecular target: T2, Solute carrier family 15 member 1 (Homo sapiens, UniProt P46059); test: Substrate activity at PEPT1 (unknown origin) expressed in MDCK cells assessed as PEPT1 mediated drug uptake at 0.5 mM incubated for 10 mins by HPLC analysis; assay type: ADME, cell-based; settings: 500 µM
T2 sequence (P46059 whole entry): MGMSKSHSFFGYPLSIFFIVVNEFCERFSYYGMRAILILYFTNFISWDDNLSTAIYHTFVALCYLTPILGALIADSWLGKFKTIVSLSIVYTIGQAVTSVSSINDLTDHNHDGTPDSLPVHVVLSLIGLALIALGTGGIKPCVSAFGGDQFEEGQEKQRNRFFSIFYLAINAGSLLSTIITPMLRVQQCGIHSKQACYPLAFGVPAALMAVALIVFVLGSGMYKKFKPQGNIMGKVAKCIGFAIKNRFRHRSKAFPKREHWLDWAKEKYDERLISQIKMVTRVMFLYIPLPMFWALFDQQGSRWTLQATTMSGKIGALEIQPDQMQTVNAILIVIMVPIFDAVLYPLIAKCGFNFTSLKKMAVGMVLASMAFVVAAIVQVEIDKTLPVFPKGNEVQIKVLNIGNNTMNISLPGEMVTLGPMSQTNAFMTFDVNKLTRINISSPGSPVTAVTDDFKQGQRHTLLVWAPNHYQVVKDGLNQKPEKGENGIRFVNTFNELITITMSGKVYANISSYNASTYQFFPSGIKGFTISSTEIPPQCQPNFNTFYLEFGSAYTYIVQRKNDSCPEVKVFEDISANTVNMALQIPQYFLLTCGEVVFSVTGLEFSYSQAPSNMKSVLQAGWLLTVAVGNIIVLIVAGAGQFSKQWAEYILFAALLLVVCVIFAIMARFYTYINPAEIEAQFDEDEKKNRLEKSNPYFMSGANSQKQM

ZR-75-1 [12] = test: Antitumour activity against human ZR-75-1 cells xenografted in NOD SCID nude mouse assessed as tumour inhibition at 90 mg/kg, iv administered for 20 days measured every 2 day by caliper method relative to control; assay type: functional; settings: ZR-75-1, iv, 480 h, time 20 day
[13] = AUC (0 to t) in NOD SCID nude mouse plasma xenografted with ZR-75-1 cells assessed as fluorouracil AUC at 90 mg/kg, iv measured up to 24 hrs by HPLC-MS/MS analysis; assay type: ADME, organism-based; set-up: route intravenous, dose 90 mg/kg, time <=24; settings: in vivo
[14] = molecular target: T2, Solute carrier family 15 member 1; test: Substrate activity at PEPT1 (unknown origin) expressed in MDCK cells assessed as inhibition of gly-sar uptake incubated for 10 mins by HPLC/MS/MS analysis; assay type: cell-based
[15] = Half life of compound in human MDA-MB-231 cell homogenate; assay type: ADME, tissue-based
thymidine phosphorylase = test: Half life of compound in thymidine phosphorylase buffer at 300 uM by HPLC analysis; assay type: physicochemical
[16] = Ratio of AUC (0 to t) in NOD SCID nude mouse plasma xenografted with ZR-75-1 cells to AUC (0 to t) in NOD SCID mouse tumour xenografted with ZR-75-1 cells; assay type: ADME, cell-free, Tumor/Plasma
[17] = AUC (0 to t) in NOD SCID nude mouse plasma xenografted with ZR-75-1 cells at 90 mg/kg, iv measured up to 24 hrs by HPLC-MS/MS analysis; assay type: ADME, organism-based; set-up: route intravenous, dose 90 mg/kg, time <=24
[18] = AUC (0 to t) in NOD SCID nude mouse tumour xenografted with ZR-75-1 cells assessed as floxuridine; 5-fluoro-2-deoxyuridine AUC at 90 mg/kg, iv measured up to 24 hrs by HPLC-MS/MS analysis; assay type: ADME, organism-based, Neoplasm; settings: in vivo
[19] = Cmax in NOD SCID nude mouse tumour xenografted with ZR-75-1 cells assessed as floxuridine; 5-fluoro-2-deoxyuridine concentration at 90 mg/kg, iv measured up to 24 hrs by HPLC-MS/MS analysis; assay type: ADME, organism-based, Neoplasm; set-up: route intravenous, dose 90 mg/kg, time <=24; settings: in vivo
[20] = Toxicity in NOD SCID nude mouse xenografted with human MDA-MB-231 cells assessed as body weight at 90 mg/kg, iv for 20 days (reference value: 30.1 +/- 4.1g); assay type: organism-based; settings: in vivo, 480 h, time 20 day
[21] = Drug uptake in Xenopus laevis oocytes at 0.5 mM incubated for 10 mins by HPLC analysis; assay type: ADME, cell-based; settings: oocyte, 500 µM
[22] = Toxicity in NOD SCID nude mouse xenografted with human ZR-75-1 cells assessed as body weight at 90 mg/kg, iv for 20 days (reference value: 29.2 +/- 2.5g); assay type: organism-based; settings: in vivo, 480 h, time 20 day
[23] = molecular target: T3, Sodium- and chloride-dependent neutral and basic amino acid transporter B(0+) (Homo sapiens) (UniProt Q9UN76); test: Substrate activity at SLC6A14 (unknown origin) expressed in Xenopus laevis oocytes assessed as increase in ABT0+ mediated drug uptake at 1 mM in presence of Na+ ion by HPLC analysis; assay type: cell-based; settings: Oocyte
T3 sequence (whole entry): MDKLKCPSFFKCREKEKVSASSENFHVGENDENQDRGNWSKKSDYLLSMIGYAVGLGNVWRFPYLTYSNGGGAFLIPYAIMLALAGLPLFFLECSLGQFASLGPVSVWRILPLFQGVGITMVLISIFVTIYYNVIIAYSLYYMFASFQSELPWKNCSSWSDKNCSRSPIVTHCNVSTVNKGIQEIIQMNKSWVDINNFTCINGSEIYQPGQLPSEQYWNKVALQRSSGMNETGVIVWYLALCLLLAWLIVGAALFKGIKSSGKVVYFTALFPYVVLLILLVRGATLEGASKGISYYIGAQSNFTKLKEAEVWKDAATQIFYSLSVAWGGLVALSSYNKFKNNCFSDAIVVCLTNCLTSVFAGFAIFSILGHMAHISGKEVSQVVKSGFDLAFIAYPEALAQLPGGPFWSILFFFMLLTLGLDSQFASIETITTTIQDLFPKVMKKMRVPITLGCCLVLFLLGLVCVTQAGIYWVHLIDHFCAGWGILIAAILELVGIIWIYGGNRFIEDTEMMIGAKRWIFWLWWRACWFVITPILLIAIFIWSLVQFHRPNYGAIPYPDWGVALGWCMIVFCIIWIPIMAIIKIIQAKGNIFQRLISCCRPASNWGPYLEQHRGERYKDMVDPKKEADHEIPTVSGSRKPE

[24] = molecular target: T3, Sodium- and chloride-dependent neutral and basic amino acid transporter B(0+) (Homo sapiens); test: Substrate activity at SLC6A14 (unknown origin) expressed in Xenopus laevis oocytes assessed as increase in ABT0+ mediated drug uptake at 1 mM in presence of Cl- ion by HPLC analysis; assay type: cell-based; settings: Oocyte
ZR-75-1 [25] = test: Potency index, ratio of FUdR GI50 to test compound GI50 for growth inhibition of human ZR-75-1 cells; assay type: functional
MIA PaCa-2 [26] = test: Potency index, ratio of FUdR GI50 to test compound GI50 for growth inhibition of human MIA-PaCa-2 cells; assay type: functional
[27] = Half life of compound in PBS buffer at pH 7.4 at 200 uM by HPLC analysis; assay type: physicochemical
[28] = molecular target: T1, Sodium- and chloride-dependent neutral and basic amino acid transporter B(0+); test: Substrate activity at SLC6A14 (unknown origin) expressed in Xenopus laevis oocytes assessed as inhibition of glycine uptake incubated for 10 mins by HPLC/MS/MS analysis; assay type: cell-based, Oocyte
[29] = Half life in rat plasma at 200 uM measured up to 120 mins by HPLC-MS/MS analysis; assay type: ADME, cell-free
[30] = molecular target: T3, Sodium- and chloride-dependent neutral and basic amino acid transporter B(0+) (Homo sapiens); test: Substrate activity at SLC6A14 (unknown origin) expressed in Xenopus laevis oocytes assessed as inhibition of drug uptake at 0.5 mM incubated for 10 mins in presence of glycine by HPLC analysis relative to control; assay type: cell-based; settings: Oocyte
MDA-MB-231 [31] = test: Potency index, ratio of FUdR GI50 to test compound GI50 for growth inhibition of human MDA-MB-231 cells; assay type: functional

Structure (SMILES)	Drug uptake [1] [nmol/mg/min]	half-life [2] [min]	half-life [4] [min]	Ratio [5]	Ratio [6]	Drug uptake [9] [nmol/mg/min]	Drug uptake [11] [nmol/mg/min]	IC50 [14] [µM]	half-life [15] [min]	half-life at 300 µM (thymidine phosphorylase) [min]	Drug uptake [21] [nmol/mg/min]	further results
O=c1[nH]c(=O)n([C@H]2C[C@H](O)[C@@H](CO)O2)cc1F [FLOXURIDINE]	< 0.04	15.6	13.2	1	1	< 0.04	< 0.04	12200	23.1	10.2	< 0.04	Cmax [3]: 434.1 ng/mL; inhibition in vivo at 90 mg/kg (MIA PaCa-2 [7]): 41.3%; Activity [8]: 24.7 g; inhibition in vivo at 90 mg/kg (MDA-MB-231 [10]): 36.9%; inhibition in vivo at 90 mg/kg (ZR-75-1 [12]): 36.1%; AUCt [13]: 4107.2 ng·h/mL; Ratio [16]: 0.5; AUC(0-t) at 24 h [17]: 3420 ng·h/mL; AUCt [18]: 1877.1 ng·h/g; Cmax [19]: 374.4 ng/g; Activity [20]: 28.4 g; Activity [22]: 25.8 g
CC(C)[C@H](N)C(=O)OC[C@H]1O[C@@H](n2cc(F)c(=O)[nH]c2=O)C[C@@H]1O	0.41	11.3	16.4	7.55	4.34	2.34	1.78	1120	15.3	408	0.31	Activity [23]: Active; Activity [24]: Active; RatioGI50 (ZR-75-1 [25]): 7; RatioGI50 (MIA PaCa-2 [26]): 7; half-life at 200 µM [27]: 203 min; IC50 [28]: 980 µM; half-life at 200 µM [29]: 78.5 min; inhibition [30]: 50%; RatioGI50 (MDA-MB-231 [31]): 7
